From ChEMBL document CHEMBL1121687, “2-Benzodioxinylaminoethanols: a new class of beta-adrenergic blocking and antihypertensive agents” (J Med Chem, 1981)
Active and inactive are the calls of the source. The calls are words filed in the database; no cut-off is given here.

Legend:
Rattus norvegicus [1] = assay: Change in diastolic blood pressure in anesthetized spontaneous hypertensive rats when 5 mg/kg of compound was administered intravenously; format: functional, Artery; conditions: route intravenous
Canis lupus familiaris = assay: Dose required to induce at least 50% inhibition of the isoprenaline-induced effect, administered intravenously
Rattus norvegicus [2] = species: Rattus norvegicus; assay: Duration of action of compound was determined for antihypertensive action in rats; format: functional
Rattus norvegicus [3] = assay: Change in systolic blood pressure in anesthetized spontaneous hypertensive rats when 5 mg/kg of compound was administered intravenously; format: functional, Artery; conditions: route intravenous
Rattus norvegicus [4] = assay: Change in systolic blood pressure in anesthetized spontaneous hypertensive rats when 10 mg/kg of compound was administered intravenously; format: functional, Artery; conditions: route intravenous
[5] = molecular target: Beta-1 adrenergic receptor (Cavia porcellus, UniProt B0FL73); assay: (§1) Antagonist activity of compound against Beta-1 adrenergic receptor in isolated guinea pig left atria; format: functional; conditions: read-out: pA2 app (converted)
Rattus norvegicus [6] = assay: Duration of action of 10 mg/kg intravenous dose of compound was determined in SHR test for antihypertensive activity in rats; format: functional
Rattus norvegicus [7] = assay: Change in diastolic blood pressure in anesthetized spontaneous hypertensive rats when 10 mg/kg of compound was administered intravenously; format: functional, Artery; conditions: route intravenous
Rattus norvegicus [8] = assay: Change in diastolic blood pressure in anesthetized spontaneous hypertensive rats when 20 mg/kg of compound was administered intravenously; format: functional, Artery; conditions: route intravenous
Rattus norvegicus [9] = assay: Duration of action of 20 mg/kg intravenous dose of compound was determined in SHR test for antihypertensive activity in rats; format: functional
Rattus norvegicus [10] = assay: Change in systolic blood pressure in anesthetized spontaneous hypertensive rats when 20 mg/kg of compound was administered intravenously; format: functional, Artery; conditions: route intravenous
[11] = molecular target: Beta-1 adrenergic receptor (Cavia porcellus) (UniProt B0FL73); assay: as §1; format: functional
[12] = molecular target: Beta-2 adrenergic receptor (Cavia porcellus) (UniProt Q8K4Z4); assay: Antagonist activity of compound (10e-4 mol/L) against beta 2-adrenergic receptor in isolated guinea pig trachea; Inactive at a concentration of 10e-4 M/L; format: functional, tissue-based
Rattus norvegicus [13] = assay: Duration of action of 2 mg/kg intravenous dose of compound was determined in SHR test for antihypertensive activity in rats; format: functional
Rattus norvegicus [14] = assay: Change in diastolic blood pressure in anesthetized spontaneous hypertensive rats when 2 mg/kg of compound was administered intravenously; format: functional, Artery; conditions: route intravenous
Rattus norvegicus [15] = assay: Duration of action of 5 mg/kg intravenous dose of compound was determined in SHR test for antihypertensive activity in rats; format: functional
Rattus norvegicus [16] = assay: Change in systolic blood pressure in anesthetized spontaneous hypertensive rats when 2.5 mg/kg of compound was administered intravenously; conditions: route intravenous
Rattus norvegicus [17] = assay: as above; conditions: route intravenous; remark: listed apart in the source
[18] = molecular target: Beta-2 adrenergic receptor (Cavia porcellus) (UniProt Q8K4Z4); assay: Antagonist activity of compound against Beta-2 adrenergic receptor in isolated guinea pig trachea; inactive; format: functional, tissue-based
[19] = system: Beta-2 adrenergic receptor (Cavia porcellus); assay: Antagonist activity of compound against beta-2 adrenergic receptor in isolated guinea pig trachea; Inactive at a concentration of 10e-4 M/L
[20] = molecular target: Beta-2 adrenergic receptor (Cavia porcellus) (UniProt Q8K4Z4); assay: Antagonist activity of compound against Beta-2 adrenergic receptor in isolated guinea pig trachea; Inactive at a concentration of 10e-4 M/L; format: functional, tissue-based

Chain of Beta-2 adrenergic receptor (Cavia porcellus) (UniProt Q8K4Z4) (Q8K4Z4 whole entry, looked up): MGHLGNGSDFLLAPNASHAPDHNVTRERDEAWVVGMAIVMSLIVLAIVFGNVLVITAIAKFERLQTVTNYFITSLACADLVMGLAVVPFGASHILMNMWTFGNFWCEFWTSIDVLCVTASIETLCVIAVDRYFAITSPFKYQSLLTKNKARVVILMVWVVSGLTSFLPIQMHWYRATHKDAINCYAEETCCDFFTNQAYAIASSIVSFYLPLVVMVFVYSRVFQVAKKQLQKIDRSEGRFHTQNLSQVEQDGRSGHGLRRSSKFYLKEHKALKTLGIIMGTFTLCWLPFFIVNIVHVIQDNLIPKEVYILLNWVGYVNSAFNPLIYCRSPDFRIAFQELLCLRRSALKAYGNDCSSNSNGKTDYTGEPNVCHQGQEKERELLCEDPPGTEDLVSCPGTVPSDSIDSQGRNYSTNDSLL
Chain of Beta-1 adrenergic receptor (Cavia porcellus) (B0FL73 1-467): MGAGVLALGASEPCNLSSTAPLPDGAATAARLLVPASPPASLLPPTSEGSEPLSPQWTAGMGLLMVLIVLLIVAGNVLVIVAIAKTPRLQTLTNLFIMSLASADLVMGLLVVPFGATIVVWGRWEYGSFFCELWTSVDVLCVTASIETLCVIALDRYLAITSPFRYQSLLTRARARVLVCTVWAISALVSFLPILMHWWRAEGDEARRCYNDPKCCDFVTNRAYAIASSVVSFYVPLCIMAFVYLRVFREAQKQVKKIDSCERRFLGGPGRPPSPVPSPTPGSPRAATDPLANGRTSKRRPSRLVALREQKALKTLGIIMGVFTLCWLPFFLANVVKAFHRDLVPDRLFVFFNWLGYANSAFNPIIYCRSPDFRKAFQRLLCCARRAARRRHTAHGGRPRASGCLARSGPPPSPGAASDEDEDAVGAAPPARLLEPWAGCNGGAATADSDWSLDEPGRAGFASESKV
Chain of Beta-1 adrenergic receptor (B0FL73 whole entry): as the sequence (B0FL73 1-467) above

Kb [5] | pD2 app [11] | SMILES | Change in BP (Rattus norvegicus [1]) | Dose (Canis lupus familiaris) | Change in BP (Rattus norvegicus [8]) | Change in BP (Rattus norvegicus [10]) | Duration of action (Rattus norvegicus [13]) | Change in BP (Rattus norvegicus [14]) | Duration of action (Rattus norvegicus [15]) | Change in BP (Rattus norvegicus [17]) | also measured
– | – | CC(C)NCC(O)COc1cccc2ccccc12 (stereo not given) [PROPRANOLOL] | -64% | 0.25 mg/kg | – | – | – | – | – | – | Duration of action (Rattus norvegicus [2]): 30 min; Change in BP (Rattus norvegicus [3]): -54%
1.17 µM | – | OC(CN1CCCCCC1)C1=COc2ccccc2O1 (stereo not given) | – | 10 mg/kg | – | – | – | – | – | – | Change in BP (Rattus norvegicus [4]): -44%; Duration of action (Rattus norvegicus [6]): 20 min; Change in BP (Rattus norvegicus [7]): -57%
0.617 µM | – | OC(CN1CCCCC1)C1=COc2ccccc2O1 (stereo not given) | – | – | -78% | -66% | – | – | – | – | Duration of action (Rattus norvegicus [9]): 20 min
– | 4.84 | COc1ccccc1N1CCN(CC(O)C2=COc3ccccc3O2)CC1 (stereo not given) | -41% | – | – | – | >45 min | -41% | >45 min | -41% | pA2 app [12]: inactive; Change in BP (Rattus norvegicus [16]): -41%
– | – | OC(CN1CCN(c2cccc(C(F)(F)F)c2)CC1)C1=COc2ccccc2O1 (stereo not given) | – | 10 mg/kg | -83% | -65% | – | – | – | – | Duration of action (Rattus norvegicus [9]): 20 min; pD2 app [18]: inactive; pA2 app [19]: inactive
– | – | CC(=O)Nc1ccc(OCC(O)CNC(C)C)cc1 (stereo not given) [PRACTOLOL] | – | 2.5 mg/kg | -31% | -32% | – | – | – | – | Duration of action (Rattus norvegicus [2]): 45 min; pD2 app [20]: inactive
– | – | COc1ccc(CCNCC(O)C2=COc3ccccc3O2)cc1OC (stereo not given) | – | 1 mg/kg | – | – | >25 min | -37% | >25 min | -33% | –
0.00851 µM | 4.8 | CC(C)(C)NCC(O)C1=COc2ccccc2O1 (stereo not given) | – | 1 mg/kg | – | – | – | – | – | – | Change in BP (Rattus norvegicus [4]): -50%; Duration of action (Rattus norvegicus [6]): 25 min; Change in BP (Rattus norvegicus [7]): -57%
– | – | CC(C)NCC(O)C1=COc2ccccc2O1 (stereo not given) | -60% | – | – | – | – | – | >45 min | – | Change in BP (Rattus norvegicus [3]): -49%
– | 4.89 | Oc1nc2ccccc2n1C1CCN(CC(O)C2=COc3ccccc3O2)CC1 (stereo not given) | -43% | 1 mg/kg | – | – | >25 min | -43% | >25 min | -38% | pD2 app [20]: inactive; Change in BP (Rattus norvegicus [16]): -38%
